Literature values as cited in US20180080913A1, “SCREENING METHOD FOR MULTI-TARGET DRUGS AND/OR DRUG COMBINATIONS” (Wuhan Bio-links Technology Co., Ltd, priority 2015, published 2018).

System: human gastric barcinoma cell line MGC803
Conditions: combination of d-limonene and berberine, active ingredients of Zuo Gui Wan

Row | SMILES | promotion of gastric cancer cell apoptosis
1 | COc1ccc2cc3[n+](cc2c1OC)CCc1cc2c(cc1-3)OCO2 [berberine] | synergistically promote gastric cancer cell apoptosis
2 | C=C(C)[C@H]1CC=C(C)CC1 [d-limonene] | synergistically promote gastric cancer cell apoptosis
